Reference: PMC12775124, “CUL4A-DDB1-DCAF10 is an N-recognin for N-terminally acetylated Src kinases” (Nature Communications, 2026)

Legend:
[1] = test system: GST-DCAF10; assay: Streptavidin pull-down of GST-DCAF10 with biotinylated Nt-peptides; format: binding, human; details: for Binding to GST-DCAF10 (in words) / Nt-free reduction compared to Nt-Ac: 0.5 µM GST-DCAF10, 5 µM peptide, 1 h RT, WB; for Nt-free reduction compared to Nt-Ac: mean ± s.d., n = 3 independent binding assays
Description: To confirm direct interactions between peptides and DCAF10, we performed pull-down assays using bead-bound Nt-peptide variants incubated with purified full-length GST-DCAF10 or GST as a negative control (Fig. 2m–p and Supplementary Fig. 4a).
230 of 1:100), and desalted/concentrated on C18 reversed phase stage tips as previously
MS measurements settings are stated in MS measurements and raw file
BL21(DE3) cells (Thermo Fisher Scientific,
240 agar) plate containing 100 μg/mL ampicillin and 34 μg/mL chloramphenicol, then
Terrific broth (TB) medium (24 g/L yeast extract,
243 20 g/L tryptone, glycerol 4 mL/L, 100 mL/L phosphate buffer containing 0.17 M KH2PO4
244 and 0.72 M K2HPO4) was used to prepare a 1:100 dilution of the starter culture, and OD600
At OD600 = 1, protein induction was initiated by adding 1 mM
247 day, pellets were homogenized and lysed in glycerol lysis buffer (20 mM Tris-HCl pH
Lysis was performed on ice for 30 min, followed by
250 sonication (7 × 20 sec pulses with 20 sec breaks on ice) using a Bandelin sonoplus
Lysates were centrifuged at 4°C for 1 h
253 medium culture was lysed in 20 mL of supernatant (collected in 20 × 1 mL tubes). GST
255 agarose bead; Thermo Fisher Scientific, Waltham, MA, USA). For each 1 mL of
100 μL of GST magnetic beads
257 were washed twice with 500 μL of wash buffer (125 mM Tris-HCl pH 7.4, 150 mM NaCl,
The lysis supernatant was diluted 1:1 with
259 wash buffer, and incubated with the beads on an end-over-end rotator for 1 h at 25°C.
260 After incubation, the supernatant was removed, and the beads were washed twice with
Protein elution was then performed by incubating
263 pH 7.4, 250 mM NaCl, 0.3% Triton X-100) for 30 min at 25°C on an end-over-end rotator.
265 under the same conditions. Elution fractions were pooled and concentrated by
266 centrifugation (4°C, 25 min, 4500 rpm) using a 30 kDa cut-off concentrator (Merck
267 Millipore, #UFC803008, Darmstadt, Germany). Purified proteins were analyzed by
268 colloidal Coomassie stain, WB and MS.
270 Streptavidin pull-downs with GST-DCAF10 and biotinylated peptides
271 Streptavidin magnetic beads (DynabeadsTM MyOneTM Streptavidin T1; Thermo Fisher
272 Scientific, Waltham, MA, USA) were washed twice with 500 μL of wash buffer (125 mM
273 Tris-HCl pH 7.4, 150 mM NaCl, 0.1% Triton X-100). An excess of peptides was added
274 (to ensure full occupancy of the beads) and incubated for 30 min at RT. After peptide
275 binding, beads were again washed three times with 500 μL of wash buffer. The pull-down
276 was then performed in a 100 μL reaction volume with final concentrations of 0.5 µM
277 GST-DCAF10 and 5 µM peptide. GST-DCAF10 or GST alone (as a control) was added
278 to the peptide-streptavidin beads and incubated on a rotator for 1 h at RT. After incubation,
279 the beads were washed three times with 500 μL of wash buffer and resuspended in 4x
280 Laemmli buffer. 1/5 of the input (GST-DCAF10 and GST) and 9/10 of the sample were
281 loaded on a 10% SDS gel and blotted with anti-GST and anti-DCAF10 antibodies, while
282 1/10 was loaded on a 15% SDS gel and blotted with anti-streptavidin antibody to assess
283 equal peptide loading.
285 Streptavidin Sepharose High Performance, GE Healthcare, Chicago, IL, USA) were used.
286 After washing with a high salt wash buffer without detergents (125 mM Tris-HCl pH 7.4,
287 400 mM NaCl), an excess of peptides was added and incubated for 30 min at RT. For each
288 reaction, 10 µL of slurry beads were used. After peptide-binding, beads were again
289 washed once with a high salt wash buffer without detergents and twice with binding buffer
290 without detergents (125 mM Tris-HCl pH 7.4, 150 mM NaCl). The pull-downs were
291 performed in a 100 μL reaction volume in binding buffer without detergents with a final
292 concentration of 0.5 µM GST-DCAF10 and incubated rotating for 1 h at RT. After
293 incubation, the beads were washed five times with 500 μL of high salt wash buffer without […]

[2] = test system: DCAF10; assay: Peptide pull-down with quantitative MS, HeLa lysate, DCAF10; format: binding, human (HeLa); details: HeLa lysate; for DCAF10 binding (in words): Nt-Ac vs Nt-free peptides
Description: Beads presenting 10-residue synthetic Nt-peptides of proteins of interest in their free (Nt-free) or modified (e.g., Nt-acetylated) versions were incubated with lysates from HeLa cells, followed by MS-based quantification of retained binders (Fig. 1a).
Biotinylated 10-mer Nt-peptides (Nt-free, Nt-acetylated, and, where indicated, Nt-myristoylated; sequences in Supplementary Table 1) were synthesized with a C-terminal Lys3 spacer and biotin, immobilized on magnetic streptavidin beads, and incubated with HeLa or mouse liver lysates. After standardized washes, bound proteins were on-bead reduced/alkylated, digested with LysC/trypsin, desalted, and analysed by LC-MS in DIA mode (Orbitrap Exploris 480) as described previously[24]. Variants included endogenous Nt-sequences, swap and mutant (Ala-Ala-Ala or Nt-amino acids) peptides, and pairwise comparisons of conditions of interest.
All MS experiments were performed as independent biological triplicates. Relative protein quantification was carried out using the label-free algorithm integrated in DIA-NN[53], and statistical testing was performed in Perseus using a two-sided Student’s t test with permutation-based multiple-testing-adjusted p-values[53],[54], as specified in the figure legends. […] Volcano blots were visualized with RStudio (version 2023.06.0). […] Cell experiments were performed as biological replicates, and binding assays as independent assays. […] Data are presented as mean ± s.d. Fold changes are reported as the ratio of the normalized value for the condition of interest to the normalized control value, with mean ± s.d. computed across biological replicates.

[3] = test system: pY397 Lyn; assay: Phosphorylation of Lyn-GFP variants at pY397, Western blot (reviewers only); format: cell-based, human; details: preliminary experiment, unstimulated cells, three independent blots
Text: distinct in term of phospho-tyrosine activity?
We agree that understanding the functional consequences of N-terminal acetylation versus myristoylation—particularly regarding kinase activity and localization—is among the most relevant questions and a key next step in this project. As an initial indication, we performed a preliminary experiment using full-length Lyn constructs (LynWT-GFP, LynG2A-GFP, and LynG2P-GFP) with or without NMT1/2 RNAi and probed the activating phospho-tyrosine site of Lyn (pY397). We observed marked […]
upon NMT1/2 knockdown specifically at the activating pY397 site, while global pY levels appeared to be largely unchanged in these unstimulated cells, […] (Figure 2 provided to reviewers only). […]
have not included them in the manuscript but provide them for the reviewers’ information only, as we are working on consequences for kinase activity and biological role. We plan to pursue a systematic analysis under stimulated conditions, quantifying pY patterns and localization changes to define how the N-terminal state affects SFK signaling output. […]
Fig. 2 for reviewers only. a) LynWT-GFP, LynG2A-GFP and LynG2P-GFP expressing cells were treated with NMT1/2 RNAi or left untreated and then blotted against anti-pY397 Lyn, pan-anti-pY and controls. b) Quantification of three independent blots. […]

[4] = test system: DCAF10; assay: Anti-GFP immunoprecipitation of Lyn-GFP with MS, DCAF10; format: binding, human; details: anti-GFP IP, NMT1/2 siRNA and control
Description: 494 induction using GFP-Trap magnetic agarose beads. Briefly, 10 µL of bead slurry per
495 reaction was equilibrated three times with ice-cold lysis buffer (75 mM HEPES pH 7.5,
497 supplemented with 1mM DTT, PhosSTOP, and Protease Inhibitor Cocktail). Then, 500
498 µL of each lysate sample (control, dox induction, and NMT1/2 knockdown with or
499 without dox induction) containing approximately 300 µg total protein, were added to
500 tubes containing the equilibrated beads. Samples were rotated end-over-end for 1.5–2 h
After incubation, the beads were washed twice with 500 µL of cold lysis buffer
502 and twice with 500 µL of cold lysis buffer lacking NP-40, glycerol, DTT, phosSTOP, and
503 Protease Inhibitor Cocktail. Finally, the immunoprecipitates were resuspended in 50 µL
504 of 8 M urea, incubated at 25°C for 30 min, and stored at -20°C prior to on-bead digestion
Each experimental condition was performed in
526 Mass spectrometry measurements and raw file processing
527 Samples (peptide pull-downs, IPs and high-pH fractionations) were separated on an
528 EASY-nLC 1200 HPLC system (Thermo Fisher Scientific, Waltham, MA, USA) using
529 in-house-packed 50-cm reversed-phase columns (75 cm diameter, 1.9 mm C18 ReproSil
530 particles, Dr. Maisch GmbH) (60°C at 300 nL/min flow rate with an 83 min gradient from […]
536 sec cycle time) (data points per peak = 6). Cycle times were calculated based on the […]

## GCIKSKGKDSKK [Ac-Lyn, Nt-peptide of Lyn (aa 1–10 + KKK-biotin), Nt-acetylated]
[1]; listed as Nt-acetylated Lyn
  Binding to GST-DCAF10 (in words): bound robustly to GST-DCAF10
[2]
  DCAF10 binding, Nt-Ac vs Nt-Myr (in words): DCAF10 selectively recognizes the acetylated form
  DCAF10 binding (in words): bound to DCAF10
[2]; n = 3
  log₂ difference Ac-Lyn vs Ac-THOC7, DCAF10: 5.83

## GCIKSKGKDSKK [Nt-free Lyn, Nt-peptide of Lyn (aa 1–10 + KKK-biotin), Nt-free]
[1]; listed as Lyn Nt-free
  Binding to GST-DCAF10 (in words): bound only weakly
[1]
  Nt-free reduction compared to Nt-Ac: 88.5 ± 14.7%

## GCVQCKDKEAKK [Nt-free Fyn, Nt-peptide of Fyn, Nt-free]
[1]
  Binding to GST-DCAF10 (in words): bound only weakly
  Nt-free reduction compared to Nt-Ac: 82.5 ± 10.8%

## GSNKSKPKDAKK [Ac-Src, Nt-peptide of Src, Nt-acetylated]
[1]; compared with Lyn and Fyn
  Lower binding in pull-downs: ~ 30%
[2]; Ac-Src vs Nt-free Src
  DCAF10 binding in initial pull-downs, log2: ~5 log2
[2]
  DCAF10 binding (in words): bound to DCAF10
[2]; listed as Nt-acetylated Src
  DCAF10 binding, Nt-Ac vs Nt-Myr (in words): DCAF10 selectively recognizes the acetylated form

## Lyn^WT-GFP: doxycycline-inducible C-terminally GFP-fused Lyn in DLD-1 Lyn KO cells
[3]
  Decrease of pY397 phosphorylation upon NMT1/2 knockdown: approximately 15%
[4]
  Interaction with DCAF10 (in words): significantly interacted with DCAF10 under both NMT1/2 siRNA and control conditions, with significant enrichment upon NMT1/2 KD
